This passage reports EC50 results from US11708348B2, “Protease inhibitors for treatment of coronavirus infections” (The Scripps Research Institute, priority 2021, dated 2023).

Some results are limits rather than exact numbers.

The test system of this assay is SARS-CoV-2 strain USA-WA1/2020. Briefly: microbe, parasite or virus in culture. In kind it is cell-based. Particulars: Severe acute respiratory syndrome coronavirus 2, HeLa-ACE2, 24 h, HeLa-ACE2 cells, SARS-CoV-2 infection, 24 h; read-out: EC50, uM (Hela).
The term EC50 denotes the concentration that produces a half-maximal response. In the case of `CC(C)[C@@H](O)C(=O)N1[C@H](C(=O)N[C@@H](C[C@@H]2CCNC2=O)C(=O)COC(F)(F)F)C[C@@]2(C)C[C@@H]12` [Compound 452, (1R,3S,5R)-2-((R)-2-hydroxy-3-methylbutanoyl)-5-methyl-N-((S)-3-oxo-1-((S)-2-oxopyrrolidin-3-yl)-4-(trifluoromethoxy)butan-2-yl)-2-azabicyclo[3.1.0]hexane-3-carboxamide], the half-maximal effective concentration (EC50) lay within 0.05 to 0.2 µM.

Take `CC(C)(C)c1ccc(C(=O)N2CC3(CC3)C[C@H]2C(=O)N[C@@H](C[C@@H]2CCNC2=O)C(=O)COC(F)(F)F)cc1` [Compound 453, (S)-5-(4-(tert-butyl)benzoyl)-N-((S)-3-oxo-1-((S)-2-oxopyrrolidin-3-yl)-4-(trifluoromethoxy)butan-2-yl)-5-azaspiro[2.4]heptane-6-carboxamide]: the concentration for a half-maximal effect (EC50) was < 0.05 µM. `CC(C)(C)C[C@@H](O)C(=O)N1C[C@H]2[C@@H]([C@H]1C(=O)N[C@@H](C[C@@H]1CCNC1=O)C(=O)COC(F)(F)F)C2(C)C` [Compound 454, (1R,2S,5S)-3-((R)-2-hydroxy-4,4-dimethylpentanoyl)-6,6-dimethyl-N-((S)-3-oxo-1-((S)-2-oxopyrrolidin-3-yl)-4-(trifluoromethoxy)butan-2-yl)-3-azabicyclo[3.1.0]-hexane-2-carboxamide]: the EC50 was < 0.05 µM. As for `CC(C)(C)c1cccc(C(C)(C)C(=O)N2CC3(CC3)C[C@H]2C(=O)N[C@@H](C[C@@H]2CCNC2=O)C(=O)COC(F)(F)F)c1` [Compound 455, (S)-5-(2-(3-(tert-butyl)phenyl)-2-methylpropanoyl)-N-((S)-3-oxo-1-((S)-2-oxopyrrolidin-3-yl)-4-(trifluoromethoxy)butan-2-yl)-5-azaspiro[2.4]heptane-6-carboxamide], the concentration giving a half-maximal response (EC50) was in the range of 0.05 to 0.2 µM. Regarding `CC(C)(C(=O)N1CC2(CC2)C[C@H]1C(=O)N[C@@H](C[C@@H]1CCNC1=O)C(=O)COC(F)(F)F)c1cccc(C(F)(F)F)c1` [Compound 456, (S)-5-(2-methyl-2-(3-(trifluoromethyl)-phenyl)propanoyl)-N-((S)-3-oxo-1-((S)-2-oxopyrrolidin-3-yl)-4-(trifluoromethoxy)butan-2-yl)-5-azaspiro[2.4]heptane-6-carboxamide], the EC50 is < 0.05 µM. As for `O=C1NCC[C@H]1C[C@H](NC(=O)[C@@H]1CC2(CC2)CN1C(=O)c1cccc(C(F)(F)F)c1)C(=O)COC(F)(F)F` [Compound 457, (S)-N-((S)-3-oxo-1-((S)-2-oxopyrrolidin-3-yl)-4-(trifluoromethoxy)butan-2-yl)-5-(3-(trifluoromethyl)-benzoyl)-5-azaspiro[2.4]heptane-6-carboxamide], the EC50 was < 0.05 µM. Regarding `CC(C)(C)c1cccc(C(=O)N2CC3(CC3)C[C@H]2C(=O)N[C@@H](C[C@@H]2CCNC2=O)C(=O)COC(F)(F)F)c1` [Compound 458, (S)-5-(3-(tert-butyl)benzoyl)-N-((S)-3-oxo-1-((S)-2-oxopyrrolidin-3-yl)-4-(trifluoromethoxy)butan-2-yl)-5-azaspiro[2.4]heptane-6-carboxamide], the concentration giving a half-maximal response (EC50) was < 0.05 µM. For the compound `CC(C)(C)CCC(=O)N1CC2(CC2)C[C@H]1C(=O)N[C@@H](C[C@@H]1CCNC1=O)C(=O)COC(F)(F)F` [Compound 459, (S)-5-(4,4-dimethylpentanoyl)-N-((S)-3-oxo-1-((S)-2-oxopyrrolidin-3-yl)-4-(trifluoromethoxy)butan-2-yl)-5-azaspiro[2.4]heptane-6-carboxamide], the half-maximal effective concentration (EC50) is < 0.05 µM. Regarding `O=C(N[C@@H](Cc1ccccc1)C(=O)N[C@@H](C[C@@H]1CCNC1=O)C(=O)COC(F)(F)F)c1cc(-c2ccccc2F)on1` [Compound 460, 5-(2-fluorophenyl)-N-((S)-1-oxo-1-(((S)-3-oxo-1-((S)-2-oxopyrrolidin-3-yl)-4-(trifluoromethoxy)butan-2-yl)amino)-3-phenylpropan-2-yl)isoxazole-3-carboxamide], the EC50 is < 0.05 µM. With `O=C(N[C@@H](CC1CC1)C(=O)N[C@@H](C[C@@H]1CCNC1=O)C(=O)COC(F)(F)F)c1nnc(Nc2ccccc2)o1` [Compound 461, N-((S)-3-cyclopropyl-1-oxo-1-(((S)-3-oxo-1-((S)-2-oxopyrrolidin-3-yl)-4-(trifluoromethoxy)butan-2-yl)amino)propan-2-yl)-5-(phenylamino)-l,3,4-oxadiazole-2-carboxamide], the EC50 was 0.2 to 0.5 µM. As to `O=C(N[C@@H](CC1CC1)C(=O)N[C@@H](C[C@@H]1CCNC1=O)C(=O)COC(F)(F)F)c1cc(Cc2ccccc2)on1` [Compound 462, 5-benzyl-N-((S)-3-cyclopropyl-1-oxo-1-(((S)-3-oxo-1-((S)-2-oxopyrrolidin-3-yl)-4-(trifluoromethoxy)butan-2-yl)amino)propan-2-yl)isoxazole-3-carboxamide], the half-maximal effective concentration (EC50) is < 0.05 µM.

In the case of `CC(C)C[C@H](NC(=O)c1cc(-c2ccccn2)on1)C(=O)N[C@@H](C[C@@H]1CCNC1=O)C(=O)COC(F)(F)F` [Compound 464, N-((S)-4-methyl-1-oxo-1-(((S)-3-oxo-1-((S)-2-oxopyrrolidin-3-yl)-4-(trifluoromethoxy)butan-2-yl)amino)pentan-2-yl)-5-(pyridin-2-yl)isoxazole-3-carboxamide], the 50% effective concentration (EC50) was < 0.05 µM. For `CC(C)C[C@H](Nc1cc2ccccc2[nH]c1=O)C(=O)N[C@@H](C[C@@H]1CCNC1=O)C(=O)COC(F)(F)F` [Compound 465, (S)-4-methyl-2-((2-oxo-1,2-dihydroquinolin-3-yl)amino)-N-((S)-3-oxo-1-((S)-2-oxopyrrolidin-3-yl)-4-(trifluoromethoxy)butan-2-yl)pentanamide], the EC50 lay within 0.2 to 0.5 µM. Consider `COc1cccc2cc(C(=O)N[C@@H](CC(C)C)C(=O)N[C@@H](C[C@@H]3CCNC3=O)C(=O)COC(F)(F)F)oc12` [Compound 466, 7-methoxy-N-((S)-4-methyl-1-oxo-1-(((S)-3-oxo-1-((S)-2-oxopyrrolidin-3-yl)-4-(trifluoromethoxy)butan-2-yl)amino)pentan-2-yl)benzofuran-2-carboxamide], for which the EC50 was < 0.05 µM. Turning to `O=C(NC1CCCCC1)C(=O)N1C[C@@H]2CCC[C@@H]2[C@H]1C(=O)N[C@@H](C[C@@H]1CCNC1=O)C(=O)COC(F)(F)F` [Compound 467, (1S,3aR,6aS)-2-(2-(cyclohexylamino)-2-oxoacetyl)-N-((S)-3-oxo-1-((S)-2-oxopyrrolidin-3-yl)-4-(trifluoromethoxy)butan-2-yl)octahydrocyclo-penta[c]pyrrole-1-carboxamide], the half-maximal effective concentration (EC50) was 0.5 to 1 µM. As to `CC1(C)[C@@H]2[C@@H](C(=O)N[C@@H](C[C@@H]3CCNC3=O)C(=O)COC(F)(F)F)N(C(=O)c3csc(C(F)(F)F)n3)C[C@@H]21` [Compound 468, (1R,2S,5S)-6,6-dimethyl-N-((S)-3-oxo-1-((S)-2-oxopyrrolidin-3-yl)-4-(trifluoromethoxy)butan-2-yl)-3-(2-(trifluoromethyl)-thiazole-4-carbonyl)-3-azabicyclo[3.1.0]-hexane-2-carboxamide], the EC50 lay in the range of 0.05 to 0.2 µM. `CC1(NC(=O)C(=O)N2C[C@H]3[C@@H]([C@H]2C(=O)N[C@@H](C[C@@H]2CCNC2=O)C(=O)COC(F)(F)F)C3(C)C)CC1` [Compound 469, (1R,2S,5S)-6,6-dimethyl-3-(2-((l-methylcyclopropyl)-amino)-2-oxoacetyl)-N-((S)-3-oxo-1-((S)-2-oxopyrrolidin-3-yl)-4-(trifluoromethoxy)butan-2-yl)-3-azabicyclo[3.1.0]-hexane-2-carboxamide]: the 50% effective concentration (EC50) lay in the range of 0.05 to 0.2 µM. Regarding `CC1(C)[C@@H]2[C@@H](C(=O)N[C@@H](C[C@@H]3CCCNC3=O)C(=O)COC(F)(F)F)N(C(=O)C(=O)NC3CCCCC3)C[C@@H]21` [Compound 470, (1R,2S,5S)-3-(2-(cyclohexylamino)-2-oxoacetyl)-6,6-dimethyl-N-((S)-3-oxo-1-((S)-2-oxopiperidin-3-yl)-4-(trifluoromethoxy)butan-2-yl)-3-azabicyclo[3.1.0]-hexane-2-carboxamide], the concentration giving a half-maximal response (EC50) is < 0.05 µM. `CC(C)(NC(=O)C(=O)N1Cc2ccccc2C[C@H]1C(=O)N[C@@H](C[C@@H]1CCNC1=O)C(=O)COC(F)(F)F)C(F)(F)F` [Compound 472, (S)-N-((S)-3-oxo-1-((S)-2-oxopyrrolidin-3-yl)-4-(trifluoromethoxy)butan-2-yl)-2-(2-oxo-2-((1,1,1-trifluoro-2-methylpropan-2-yl)amino)acetyl)-1,2,3,4-tetrahydro-isoquinoline-3-carboxamide]: the concentration for a half-maximal effect (EC50) was 0.05 to 0.2 µM.

On to `Cc1ccccc1NC(=O)C(=O)N1C[C@H]2[C@@H]([C@H]1C(=O)N[C@@H](C[C@@H]1CCNC1=O)C(=O)COC(F)(F)F)C2(C)C` [Compound 473, (1R,2S,5S)-6,6-dimethyl-N-((S)-3-oxo-1-((S)-2-oxopyrrolidin-3-yl)-4-(trifluoromethoxy)butan-2-yl)-3-(2-oxo-2-(o-tolylamino)acetyl)-3-azabicyclo[3.1.0]hexane-2-carboxamide], for which the EC50 was < 0.05 µM. With `CC1(C)[C@@H]2[C@@H](C(=O)N[C@@H](C[C@@H]3CCNC3=O)C(=O)COC(F)(F)F)N(C(=O)C(=O)NC3(C(F)(F)F)CC3)C[C@@H]21` [Compound 475, (1R,2S,5S)-6,6-dimethyl-N-((S)-3-oxo-1-((S)-2-oxopyrrolidin-3-yl)-4-(trifluoromethoxy)butan-2-yl)-3-(2-oxo-2-((1-(trifluoromethyl)-cyclopropyl)amino)acetyl)-3-zabicyclo[3.1.0]hexane-2-carboxamide], the EC50 lay in the range of 0.05 to 0.2 µM. For the compound `O=C1NCC[C@H]1C[C@H](NC(=O)[C@@H]1[C@H]2CCC[C@H]2CN1C(=O)c1csc(C(F)(F)F)n1)C(=O)COC(F)(F)F` [Compound 476, (1S,3aR,6aS)-N-((S)-3-oxo-1-((S)-2-oxopyrrolidin-3-yl)-4-(trifluoromethoxy)butan-2-yl)-2-(2-(trifluoromethyl)-thiazole-4-carbonyl)-octahydrocyclo-penta[c]pyrrole-1-carboxamide], the half-maximal effective concentration (EC50) is < 0.05 µM.
